From ChEMBL document CHEMBL4334533, “Design, synthesis, and validation of novel nitrogen-based chalcone analogs against triple negative breast cancer” (Eur J Med Chem, 2020) come the findings set out here.

Each structure is given as a SMILES string.

In data set [1] the test system is MDA-MB-468. The experiment in a line: Induction of apoptosis in human MDA-MB-468 cells assessed as necrotic cells at 8 uM measured after 48 hrs by AnnexinV/7-AAD staining based flow cytometric analysis (reference value: 0.51%). In kind it is functional. (In general: Flow cytometry measures light scatter and fluorescence of single cells or particles in a stream.)

The nature of data set [2]: Toxicity in athymic nude mouse xenografted with human MDA-MB-231 cells assessed as change in food intake at 10 mg/kg, ip administered measured for 14 days. It counts as organism-based. The note with it: in vivo, 336 h. For orientation: Xenograft models place foreign cells or tissue in a host animal.
The test system of data set [3] is MDA-MB-231. The experiment in a line: Antimigratory activity in human MDA-MB-231 cells assessed as inhibition of cell motility after 24 hrs by microscopic analysis. It counts as functional, cell-based. The following applies: MDA-MB-231, 24 h.
Another data set deals with MCF7. The experiment in a line: Antimigratory activity in human MCF7 cells assessed as inhibition of cell motility after 24 hrs by microscopic analysis. The following applies: MCF7, 24 h. It counts as functional, cell-based.
For data set [4], the system named is MDA-MB-231. The experiment in a line: Antiinvasive activity in human MDA-MB-231 cells assessed as reduction in 10% FBS-induced cell invasion at 5 uM by crystal violet staining based matrigel assay relative to control. Also noted: scale not given: the % may be the effect or the level left. It counts as functional.
Data set [5] concerns MDA-MB-468. The experiment in a line: Induction of apoptosis in human MDA-MB-468 cells assessed as viable cells at 8 uM measured after 24 hrs by AnnexinV/7-AAD staining based flow cytometric analysis (reference value: 94.1%). It counts as functional. The note with it: MDA-MB-468, 24 h, read-out: Activity.
Data set [6] deals with MDA-MB-468. The experiment in a line: Induction of apoptosis in human MDA-MB-468 cells assessed as late apoptotic cells at 8 uM measured after 48 hrs by AnnexinV/7-AAD staining based flow cytometric analysis (reference value: 2.83%). In kind it is functional.
The test system of data set [7] is MDA-MB-468. The experiment in a line: Cell cycle arrest in human MDA-MB-468 cells assessed as accumulation at G2/M phase at 5 uM measured after 48 hrs by propidium iodide staining-based flow cytometric analysis relative to control. It counts as functional.
Data set [8] relates to MDA-MB-468. The experiment in a line: Induction of apoptosis in human MDA-MB-468 cells assessed as early apoptotic cells at 8 uM measured after 24 hrs by AnnexinV/7-AAD staining based flow cytometric analysis (reference value: 3.45%). In kind it is functional.
Data set [9] can be described thus: Toxicity in athymic nude mouse xenografted with human MDA-MB-231 cells assessed as change in body weight at 10 mg/kg, ip administered for 14 days. In kind it is organism-based. The following applies: in vivo, 336 h.

By IC50 is commonly meant the concentration that inhibits the measured activity by half. For `COc1cccc(C(=O)/C=C/c2ccc(N(CCCl)CCCl)cc2)c1`, the Activity in the data set on MDA-MB-468 [1] is given as 3.63%; in data set [2], “Non-Toxic”; in the data set with MDA-MB-231 [4], 80%; with MDA-MB-468 [6] it was 11.1%; with MDA-MB-468 [7], 66.45%; with MDA-MB-468 [8] it was 9.04%. Moreover, the Activity entry in data set [9] is given as “Non-Toxic”. Also, the figures for the IC50 in the data set on MDA-MB-231 [3] and in the data set with MCF7 were 3 µM and 2.44 µM, respectively. The viability at 8 µM with MDA-MB-468 [5] is 88.2%.
